Earlier results on eight compounds are cited in PubChem BioAssay AID1259410 (Chemical Carcinogenesis Research Information System (CCRIS), 2018).

For this series, the system named is rodent tumor promotion studies, tumor incidence. Nature of the series: CCRIS tumor promotion studies.

As for `Oc1c(Cl)c(Cl)c(Cl)c(Cl)c1Cl`, the outcome by setting is: (Carcinogen: DIETHYLNITROSAMINE [55-18-5], Doses [Carcinogen]: 20 PPM IN DRINKING WATER FOR 13 WEEKS (STUDY DURATION: 42 WK), Doses [Promoter]: 300 PPM IN DIET FOR 25 WK BEGINNING 4 WK POST LAST CARCINOGEN DOSE (STUDY DURATION: 42 WK), Route [Carcinogen]: ORAL, Route [Promoter]: ORAL, Species: MOUSE, Strain/Sex: B6C3F1/MALE) “liver: adenoma or carcinoma”; (Carcinogen: DIETHYLNITROSAMINE [55-18-5], Doses [Carcinogen]: 20 PPM IN DRINKING WATER FOR 13 WEEKS (STUDY DURATION: 42 WK), Doses [Promoter]: 600 PPM IN DIET FOR 25 WK BEGINNING 4 WK POST LAST CARCINOGEN DOSE (STUDY DURATION: 42 WK), Route [Carcinogen]: ORAL, Route [Promoter]: ORAL, Species: MOUSE, Strain/Sex: B6C3F1/MALE) “liver: adenoma or carcinoma”.

As to `CCCCN(CCCCO)N=O`, the outcome is reported as “urinary bladder: transitional cell papilloma” (Carcinogen: DIETHYLNITROSAMINE, 55-18-5, N-METHYLNITROSOUREA, 684-93-5, DIHYDROXY-DI-N- PROPYLNITRASAMINE, 53609-64-6, Carcinogen: DIETHYLNITROSAMINE, 55-18-5, N-METHYLNITROSOUREA, 684-93-5, DIHYDROXY-DI-N- PROPYLNITRASAMINE, 53609-64-6, Doses [Carcinogen]: 100 MG/KG/BW DEN ONCE AT BEGINNING OF STUDY THEN 20 MG/KG/BW MNU ONCE ON D 2, 5, 8 AND 11 OF STUDY FOLLOWED BY 0.1% DHPN, Doses [Promoter]: 0, 0.1% IN DRINKING WATER BEGINNING POST CARCINOGEN TREATMENT AND CONTINUING FOR DURATION OF STUDY (STUDY DURATION: 20 W, Route [Carcinogen]: INTRAPERITONEAL, INTRAPERITONEAL, ORAL, Route [Carcinogen]: INTRAPERITONEAL, INTRAPERITONEAL, ORAL, Route [Promoter]: ORAL, Species: RAT, Strain/Sex: F344/MALE) and “urinary bladder: tumor” (Carcinogen: N-BIS(2-HYDROXYPROPYL)NITROSAMINE, 53609-64-6, N-ETHYL-N-HYDROXYETHYLNITROSAMINE, 13147-25-6, 3,2'-DIMETHYL-4-AMINOB, Carcinogen: N-BIS(2-HYDROXYPROPYL)NITROSAMINE, 53609-64-6, N-ETHYL-N-HYDROXYETHYLNITROSAMINE, 13147-25-6, 3,2'-DIMETHYL-4-AMINOB, Doses [Carcinogen]: 1000 MG/KG IP IN SALINE ON DAY 1 AND 4, 1500 MG/KG IG IN DISTILLED WATER ON DAY 8 AND 11, 75 MG/KG SC IN CORN OIL ON D, Doses [Carcinogen]: 1000 MG/KG IP IN SALINE ON DAY 1 AND 4, 1500 MG/KG IG IN DISTILLED WATER ON DAY 8 AND 11, 75 MG/KG SC IN CORN OIL ON D, Doses [Promoter]: 0, 0.1% IN DRINKING WATER BEGINNING 1 WK POST LAST CARCINOGEN DOSE AND CONTINUING FOR 12 WK (STUDY DURATION: 16 WK), Route [Carcinogen]: INTRAPERITONEAL, GAVAGE, SUBCUTANEOUS, Route [Carcinogen]: INTRAPERITONEAL, GAVAGE, SUBCUTANEOUS, Route [Promoter]: ORAL, Species: RAT, Strain/Sex: F344/MALE).

On to `Cc1cccc(C)c1N`, for which, where the note is “Carcinogen: N-BIS(2-HYDROXYPROPYL)NITROSAMINE) [53609-64-6], Doses [Carcinogen]: 2400 MG/KG BW ONCE (STUDY DURATION: 53 WK), Doses [Promoter]: 3000 PPM IN DIET FOR 52 WK BEGINNING 1 WK POST LAST CARCINOGEN DOSE (STUDY DURATION: 53 WK), Route [Carcinogen]: SUBCUTANEOUS, Route [Promoter]: ORAL, Species: RAT, Strain/Sex: F344/MALE”, the outcome is “nasal cavity: carcinoma”.

Turning to `CC/C=C/C=C/C=C/C=C/C=C/OC[C@@H](O)CO`, the outcome (Carcinogen: N-METHYL-N-NITROSOUREA, 684-93-5, Doses [Carcinogen]: 2 NG IN 0.5 ML WATER 3/WK FOR 3 WK, Doses [Promoter]: 0, 400 NG IN 0.5 ML BUFFER 2/WK FOR 24 WK BEGINNING 5 WK POST CARCINOGEN TREATMENT (STUDY DURATION: 32 WK), Route [Carcinogen]: INTRARECTAL, Route [Promoter]: INTRARECTAL, Species: RAT, Strain/Sex: F344/FEMALE) is “colon: carcinoma”.

For `Cc1ccccc1O`, the outcome (Carcinogen: 7,12-DIMETHYLBENZ(A)ANTHRACENE, Doses [Carcinogen]: DERMAL, Route [Carcinogen]: DERMAL, Route [Promoter]: DERMAL, Species: MOUSE, Strain/Sex: FEMALE) is “integumentary system (skin)”.

As to `CC(C)(c1ccc(O)cc1)c1ccc(O)cc1`, the outcome (Carcinogen: 7,120Dimethylbenzanthracene (57-97-6), Doses [Carcinogen]: 30 mg/kg bw once to female offspring at 50 days of age, Doses [Promoter]: 0, 25, 250 ug/kg daily for 18 d from d 2 to d 20 postpartum to dams, Doses [Promoter]: 0, 25, 250 ug/kg daily for 18 d from d 2 to d 20 postpartum to dams, Route [Carcinogen]: Intragastric gavage, Route [Promoter]: Intragastric gavage, Species: Rat, Strain/Sex: Sprague Dawley CD/Female) is given as “breast tumors: incidence increased in offspring of 250 ug/kg dams; latent period”.

Turning to `ClC1(Cl)C2(Cl)C3(Cl)C4(Cl)C(Cl)(Cl)C5(Cl)C3(Cl)C1(Cl)C5(Cl)C24Cl` (stereo not drawn), the outcome runs as follows: (Carcinogen: 7,12-DIMETHYLBENZ[A]ANTHRACENE, 57-97-6, Doses [Carcinogen]: 200 NMOL IN 200 µL ACETONE ONCE, Doses [Promoter]: 0, 25, 50, 100, 200 NMOL IN 200 µL ACETONE 3/WK FOR 20 WK (STUDY DURATION: 20 WK), Doses [Promoter]: 0, 25, 50, 100, 200 NMOL IN 200 µL ACETONE 3/WK FOR 20 WK (STUDY DURATION: 20 WK), Route [Carcinogen]: DERMAL, Route [Promoter]: DERMAL, Species: MOUSE, Strain/Sex: CD-1/FEMALE) “skin: tumor”; (Carcinogen: 7,12-DIMETHYLBENZ[A]ANTHRACENE, 57-97-6, Doses [Carcinogen]: 200 NMOL IN 200 µL ACETONE ONCE, Doses [Promoter]: 0, 25, 50, 100 NMOL IN 200 µL ACETONE 3/WK FOR 34 WK (STUDY DURATION: 34 WK), Doses [Promoter]: 0, 25, 50, 100 NMOL IN 200 µL ACETONE 3/WK FOR 34 WK (STUDY DURATION: 34 WK), Route [Carcinogen]: DERMAL, Route [Promoter]: DERMAL, Species: MOUSE, Strain/Sex: CD-1/FEMALE) “skin: tumor”; (Carcinogen: 7,12-DIMETHYLBENZ[A]ANTHRACENE, 57-97-6, Doses [Carcinogen]: 200 NMOL IN 200 µL ACETONE ONCE, Doses [Promoter]: 0, 200 NMOL IN 200 µL ACETONE 2/WK FOR 20 WK BEGINNING 1 WK POST CARCINOGEN DOSE (STUDY DURATION: 21 WK), Route [Carcinogen]: DERMAL, Route [Promoter]: DERMAL, Species: MOUSE, Strain/Sex: CD-1/FEMALE) “skin: tumors”; (Carcinogen: 7,12-DIMETHYLBENZ[A]ANTHRACENE, 57-97-6, Doses [Carcinogen]: 200 NMOL IN 200 µL ACETONE ONCE, Doses [Promoter]: 0, 200 NMOL IN 200 µL ACETONE 3/WK FOR 20 WK BEGINNING 1 WK POST CARCINOGEN DOSE (STUDY DURATION: 21 WK), Route [Carcinogen]: DERMAL, Route [Promoter]: DERMAL, Species: MOUSE, Strain/Sex: CD-1/FEMALE) “skin: tumors”; (Carcinogen: 7,12-DIMETHYLBENZ[A]ANTHRACENE, 57-97-6, Doses [Carcinogen]: 200 NMOL IN 200 µL ACETONE ONCE, Doses [Promoter]: 0, 200 NMOL IN 200 µL ACETONE 3/WK FOR 20 WK BEGINNING 1 WK POST CARCINOGEN DOSE (STUDY DURATION: 21 WK), Route [Carcinogen]: DERMAL, Route [Promoter]: DERMAL, Species: MOUSE, Strain/Sex: CD-1/MALE) “skin: tumors”; (Carcinogen: 7,12-DIMETHYLBENZ[A]ANTHRACENE, 57-97-6, Doses [Carcinogen]: 200 NMOL IN 200 µL ACETONE ONCE, Doses [Promoter]: 0, 200 NMOL IN 200 µL ACETONE 3/WK FOR 20 WK BEGINNING 4 WK POST CARCINOGEN DOSE ADMINISTERED TO OVARIECTOMIZED MICE (ST, Route [Carcinogen]: DERMAL, Route [Promoter]: DERMAL, Species: MOUSE, Strain/Sex: CD-1/FEMALE) “skin: tumors”.

Take `O=C(OOC(=O)c1ccccc1)c1ccccc1`: the outcome is, setting by setting: (Carcinogen: 7,12-DIMETHYLBENZ(A)ANTHRACENE, Doses [Carcinogen]: TOP, Route [Carcinogen]: DERMAL, Route [Promoter]: DERMAL, Species: MOUSE, Strain/Sex: FEMALE) “integumentary system (skin)”; (Carcinogen: 7,12-DIMETHYLBENZ[A]ANTHRACENE, 57-97-6, Doses [Carcinogen]: 0.1% IN MINERAL OIL APPLIED TO BUCCAL POUCHES 3/WK FOR 10 WK, Doses [Promoter]: 0, 40% IN ACETONE APPLIED TO BUCCAL POUCHES 3/WK FOR 6 WK BEGINNING 6 WK POST CARCINOGEN TREATMENT (STUDY DURATION: 25 W, Route [Carcinogen]: DERMAL, Route [Promoter]: DERMAL, Species: HAMSTER, Strain/Sex: SYRIAN/MALE, FEMALE) “buccal pouch: tumor, carcinoma”; (Carcinogen: 7,12-DIMETHYLBENZ[A]ANTHRACENE, 57-97-6, Doses [Carcinogen]: 20 NMOL IN ACETONE ONCE, Doses [Promoter]: 0, 0.2 ML OF 100 MG/ML SOLUTION IN ACETONE 2/WK FOR 51 WK (STUDY DURATION: 52 WK), Route [Carcinogen]: DERMAL, Route [Promoter]: DERMAL, Species: MOUSE, Strain/Sex: SENCAR/FEMALE) “skin: squamous cell carcinoma”; (Carcinogen: N-METHYL-N'-NITRO-N-NITROSOGUANIDINE, 70-25-7, Doses [Carcinogen]: 4 UMOL IN 200 µL ACETONE ONCE, Doses [Promoter]: 0, 10, 20 MG IN 200 µL ACETONE 2/WK FOR 52 WK BEGINNING 2 WK POST CARCINOGEN DOSE (STUDY DURATION: 52 WK), Doses [Promoter]: 0, 10, 20 MG IN 200 µL ACETONE 2/WK FOR 52 WK BEGINNING 2 WK POST CARCINOGEN DOSE (STUDY DURATION: 52 WK), Route [Carcinogen]: DERMAL, Route [Promoter]: DERMAL, Species: MOUSE, Strain/Sex: C3H/FEMALE) “skin: tumor”.
